Columns and labels:
[1] = tested on: primary hippocampal neurons; assay: Scratch injury: p-PKA analysis; assay type: cell-based, rat; conditions: 10 μM AMX immediately after scratch, 6 hours post-injury
Experimental: (§1) Primary hippocampal neurons were obtained from embryonic day 18 (E18) Sprague-Dawley rat embryos. Pregnant rats were anesthetized using 2-3% isoflurane in a gas mixture of 70% nitrous oxide and 30% oxygen. Following euthanasia, the hippocampi were carefully dissected, minced, and enzymatically dissociated using TrypLE Express (Gibco, NY, USA) for 10 minutes at 37°C. The tissue was further mechanically dissociated using fire-polished glass pipettes, and the resulting cell suspension was filtered through a 70 μm cell strainer to remove debris. Neurons were seeded at a density of 3 × 10^5 cells per well in 24-well plates pre-coated with poly-L-lysine (Sigma-Aldrich, Saint Louis, MO, USA). […]
(§2) A scratch injury model was used to mimic TBI in vitro. […] After the treatment period, neuronal damage and recovery were assessed using appropriate evaluation methods.
Six hours after the scratch assay, cellular activity was terminated by replacing the culture medium with 0.1 M HCl. Cell lysates were then collected and analyzed for PKA activity using a commercial PKA kinase activity assay kit (Abcam, ab139435), following the manufacturer's protocol. […] Substrate phosphorylation was detected using a phospho-specific primary antibody and an HRP-conjugated secondary antibody. […] PKA activity was quantified as optical density (OD) values and expressed relative to control samples.

[2] = tested on: PDE4 in primary hippocampal neurons; assay: Scratch injury: PDE4 expression (immunocytochemistry and Western blot); assay type: cell-based, rat; conditions: scratch-AMX vs scratch-vehicle, 24 hours after scratch
Experimental: as §1, with “USA). Cells were maintained in neurobasal medium supplemented with B-27 (Thermo Fisher Scientific, Waltham, MA, USA), GlutaMAX (Gibco), and penicillin-streptomycin.” for “USA).”
as §2
Twenty-four hours after the scratch injury, cells were lysed using RIPA buffer (IBS-BR002, iNtRON, Republic of Korea) supplemented with protease and phosphatase inhibitors (Sigma, USA). […] Protein detection was performed using a chemiluminescence bioimaging device (Amersham Imager 680, Cytiva, MA, USA), and the results were analyzed to determine protein expression levels. […]

With `CC(C)c1ccc2oc3nc(N)c(C(=O)O)cc3c(=O)c2c1` [AMX, amlexanox] the “p-PKA levels after scratch injury (ELISA)” value [1] was “restored cAMP and p-PKA levels” and the PDE4 levels [2] was “significantly reduced”.

From PMC12320245 (International Journal of Biological Sciences, 2025)
